Laboratory results taken from article PMC6100475, “Development and Validation of a HPLC-MS/MS Method for Simultaneous Determination of Twelve Bioactive Compounds in Epimedium: Application to a Pharmacokinetic Study in Rats” (Molecules : A Journal of Synthetic Chemistry and Natural …, 2018).

Tests used:
[1] = set-up: method as in PMID 20705408; conditions: previous reports ref 19; cited from earlier work
[2] = Pharmacokinetic study in rats after oral administration of Epimedium extract (HPLC-MS/MS of plasma); format: in vivo, Male Sprague-Dawley rats; conditions: rat plasma, single oral dose of Epimedium extract 10 g/kg; for AUC(0-inf) / half-life / AUC / MRT / MRT inf: male, Sprague-Dawley; for AUC(0-inf) / half-life / AUC / MRT / MRT inf / Cmax1 / Tmax1: n = 6; for AUC: read-out: AUC(0-tn); for MRT: read-out: MRT(0-tn); for MRT inf: read-out: MRT(0-∞); for Cmax2 / Tmax2: n = 6, second peak
Method: An Agilent 1200 Series HPLC system, which consisted of a binary pump (G1312A), an auto-sampler (G1367B), an online degasser unit (G1322A), along with temperature-controlled column compartment (G1316A), was used for the analysis. The twelve compounds and IS were separated on a CORTECS®C18 column (4.6 mm × 150 mm, 2.7 μm) maintained at 30 °C with the mobile phase consisted of acetonitrile (A) and 0.1% (v/v) formic acid (B). The flow rate was 0.3 mL/min. The gradient elution was as follows: 0–4 min, 20–50% A; 4–5 min, 50–60% A; 5–15 min, 60–70% A. The injection volume was 5 μL.
The tandem mass spectrometry was performed on a triple-quadrupole mass spectrometer equipped with an electrospray ionization (ESI) source (Agilent G6430A system). Nitrogen gas served as the nebulizer, drying, and collision gas. Analytes were monitored by SRM in negative mode with the electrospray ionization parameters optimized as follows: ion spray voltage of −4000 V, capillary temperature of 350 °C, auxiliary nitrogen pressure of 20 psi, drying gas flow of 9 L/min. The mass spectrometric parameters of precursor ion, product ion, collision energy (CE) and fragmentor (Frag) for analytes are listed in Table 6. Both the collision energy and the fragmentor were optimized for each compound by infusion of the standard solutions of methanol to mass spectrometry directly. The peak in sample was recognized as the target compound if the retention time, precursor ion, and product ion are same as the stand. For each analyte, the most abundant product ion was chosen for quantification. All analytes were quantified using the 6-point calibration curve. The peak areas were used for quantification following an internal algorithm. For each batch of samples processed and analyzed, the determined concentration of each compound in the QC samples, as quantified by the standard curves, was required to fall within ±15% of the known concentration for the data to be included in the final analysis.
Male Sprague-Dawley rats (220 ± 10) g were obtained from the Beijing HUAFUKANG Bioscience Co., Inc. (Beijing, China). Six male rats were acclimatized to the facilities for a week and fasted for 12 h, but allowed free access to water, before dosing. The Epimedium extract was suspended in 0.5% carboxymethyl cellulose sodium (CMC-Na) aqueous solution and given to each rat by oral administration at a single dose of 10 g/kg. Blood samples (250 μL) were collected from the fossa orbitalis of rats at 0 (before dosing), 0.03, 0.08, 0.17, 0.25, 0.5, 1, 2, 4, 6, 8, 10, 12 and 24 h after dosing. Then, the blood samples were centrifuged at 6000 g for 10 min to obtain the plasma, and the plasma was removed to another EP tube and frozen at −70 °C until analysis. The rat plasma concentration–time data of 12 analytes were computed by the software “Drug and Statistics 1.0” (DAS 1.0)

SMILES	bimodal phenomenon of plasma concentration–time curve [1]	AUC(0-inf) [2]	half-life [2]	AUC [2]	MRT [2]	MRT inf [2]	Cmax1 [2]	Tmax1 [2]	Cmax2 [2]	Tmax2 [2]
COc1ccc(-c2oc3c(CC=C(C)C)c(OC4OC(CO)C(O)C(O)C4O)cc(O)c3c(=O)c2OC2OC(C)C(O)C(O)C2OC2OCC(O)C(O)C2O)cc1 (stereo not shown) [epimedin B]	bimodal phenomenon	1070 ± 212 ng·h/mL	3.64 ± 3.68 h	946 ± 250 ng·h/mL	6.98 ± 1.14 h	8.37 ± 2.39 h	316.73 ± 59.06 ng/mL	0.19 ± 0.07 h	129.90 ± 77.04 ng/mL	7.67 ± 0.75 h
CC(C)=CCc1c(O)cc(O)c2c(=O)c(OC3OC(C)C(O)C(O)C3O)c(-c3ccc(O)cc3)oc12 (stereo not shown) [baohuoside II]		355 ± 144 ng·h/mL	6.93 ± 2.94 h	246 ± 133 ng·h/mL	11.5 ± 1.99 h	16.5 ± 3.06 h	6.87 ± 4.58 ng/mL	0.18 ± 0.03 h	29.17 ± 7.70 ng/mL	10.67 ± 1.03 h
O=C(/C=C/c1ccc(O)c(O)c1)O[C@@H]1C[C@](O)(C(=O)O)C[C@@H](O)[C@H]1O [chlorogenic acid]		886 ± 377 ng·h/mL	0.45 ± 0.3 h	880 ± 365 ng·h/mL	3.85 ± 1.28 h	3.91 ± 1.32 h	540.28 ± 225.18 ng/mL	0.19 ± 0.05 h		
COc1ccc2c(c1O)-c1c(O)c(OC)cc3c1[C@H](C2)[N+](C)(C)CC3 [magnoflorine]		4000 ± 970 ng·h/mL	17.8 ± 8.25 h	3680 ± 875 ng·h/mL	9.86 ± 0.75 h	12.5 ± 1.72 h	411.40 ± 110.77 ng/mL	0.18 ± 0.03 h	275.67 ± 89.36 ng/mL	10.67 ± 1.63 h
COc1ccc(-c2oc3c(CC=C(C)C)c(O)cc(O)c3c(=O)c2O[C@@H]2O[C@@H](C)[C@H](O)[C@@H](O)[C@H]2O)cc1 [baohuoside I]	bimodal phenomenon	1680 ± 599 ng·h/mL	13.2 ± 4.8 h	1450 ± 616 ng·h/mL	10.8 ± 1.21 h	15.7 ± 4.1 h	65.20 ± 33.56 ng/mL	0.38 ± 0.14 h	170.73 ± 66.97 ng/mL	10.00 ± 1.79 h
COc1ccc(-c2oc3c(CC=C(C)C)c(O[C@@H]4O[C@H](CO)[C@@H](O)[C@H](O)[C@H]4O)cc(O)c3c(=O)c2O[C@@H]2O[C@@H](C)[C@H](O)[C@@H](O)[C@H]2O)cc1 [icariin]		325 ± 209 ng·h/mL	0.41 ± 0.19 h	323 ± 205 ng·h/mL	2.71 ± 0.79 h	2.75 ± 0.97 h	350.28 ± 195.96 ng/mL	0.16 ± 0.05 h		
COc1ccc(-c2oc3c(CC=C(C)C)c(OC4OC(CO)C(O)C(O)C4O)cc(O)c3c(=O)c2OC2OC(C)C(O)C(O)C2OC2OC(C)C(O)C(O)C2O)cc1 (stereo not shown) [epimedin C]		919 ± 215 ng·h/mL	17.9 ± 8.23 h	850 ± 269 ng·h/mL	9.33 ± 2.34 h	12.5 ± 2.59 h	135.22 ± 31.26 ng/mL	0.22 ± 0.04 h	103.20 ± 33.10 ng/mL	7.67 ± 0.75 h
COc1ccc(-c2oc3c(CC=C(C)C)c(OC4OC(CO)C(O)C(O)C4O)cc(O)c3c(=O)c2OC2OC(C)C(O)C(O)C2OC2OC(CO)C(O)C(O)C2O)cc1 (stereo not shown) [epimedin A]	bimodal phenomenon	600 ± 219 ng·h/mL	12.5 ± 6.85 h	550 ± 199 ng·h/mL	10.8 ± 2.33 h	14.1 ± 3.98 h	82.79 ± 7.61 ng/mL	0.22 ± 0.04 h	59.34 ± 26.24 ng/mL	9.33 ± 0.94 h
O=C(/C=C/c1ccc(O)c(O)c1)O[C@@H]1C[C@@](O)(C(=O)O)C[C@@H](O)[C@@H]1O [neochlorogenic acid]		269 ± 70.9 ng·h/mL	0.64 ± 0.27 h	264 ± 68.2 ng·h/mL	3.18 ± 1.57 h	3.25 ± 1.97 h	205.96 ± 75.12 ng/mL	0.19 ± 0.05 h		
O=C(/C=C/c1ccc(O)c(O)c1)O[C@H]1[C@H](O)C[C@](O)(C(=O)O)C[C@H]1O [cryptochlorogenic acid]		404 ± 169 ng·h/mL	0.53 ± 0.24 h	398 ± 171 ng·h/mL	3.75 ± 1.91 h	3.82 ± 2.48 h	269.77 ± 114.07 ng/mL	0.19 ± 0.05 h		
COc1ccc(-c2oc3c(CC=C(C)C)c(O)cc(O)c3c(=O)c2OC2OC(C)C(O)C(O)C2OC2OCC(O)C(O)C2O)cc1 (stereo not shown) [sagittatoside B]		1040 ± 202 ng·h/mL	9.38 ± 2.11 h	854 ± 171 ng·h/mL	11.7 ± 1.17 h	14.9 ± 2.09 h	19.38 ± 9.79 ng/mL	0.20 ± 0.04 h	112.97 ± 44.50 ng/mL	11.00 ± 1.67 h
COc1ccc(-c2oc3c(CC=C(C)C)c(O)cc(O)c3c(=O)c2O[C@@H]2O[C@@H](C)[C@H](O)[C@@H](O)[C@H]2O[C@@H]2O[C@H](CO)[C@@H](O)[C@H](O)[C@H]2O)cc1 [sagittatoside A]		1780 ± 352 ng·h/mL	13.8 ± 7.09 h	1610 ± 349 ng·h/mL	12 ± 0.71 h	14.3 ± 2 h	20.35 ± 10.26 ng/mL	0.18 ± 0.03 h	203.50 ± 97.03 ng/mL	11.67 ± 0.82 h
